Assay results: PubChem BioAssay AID190 (DTP/NCI, 2004)
Several values for one entry are separate records, joined by “and”; a condition that tells them apart may be missing. Identical values can stand only once. Inconclusive results and toxic doses are left out. Rule for the calls: active = survival T/C of 150% or more; inactive = T/C below 125% in these data.

Test system: AKR/Lw mice, AKR lymphoma ip, median survival T/C
Test: NCI In Vivo Anticancer Drug Screen. Data for tumor model Lymphoma AKR (Transplanted) (intraperitoneal) in AKR/Lw mice
Details: endpoint: median survival time, higher = longer survival
Procedure: The antitumor activity of compounds was measured in mice bearing transplantable tumors. Survival or tumor size were measured and the results are expressed as the measurement made in the treated group (T) divided by the measurement made in the vehicle treated control group (C). The tumor model used in this assay is Lymphoma AKR (Transplanted) (intraperitoneal) in AKR/Lw mice

[1] = dose: 25.0 mg/kg/injection, schedule: Q01DX001 (ip), vehicle: saline
[2] = dose: 25.0 mg/kg/injection, schedule: Q04DX003 (ip), vehicle: saline
[3] = dose: 100.0 mg/kg/injection, schedule: Q01DX001 (ip), vehicle: saline
[4] = dose: 100.0 mg/kg/injection, schedule: Q01DX001 (ip), vehicle: Klucel (hydroxypropylcellulose) (HPC)
[5] = dose: 50.0 mg/kg/injection, schedule: Q01DX001 (ip), vehicle: saline
[6] = dose: 50.0 mg/kg/injection, schedule: Q04DX003 (ip), vehicle: saline
[7] = dose: 200.0 mg/kg/injection, schedule: Q01DX001 (ip), vehicle: saline
[8] = dose: 400.0 mg/kg/injection, schedule: Q01DX001 (ip), vehicle: saline
[9] = dose: 200.0 mg/kg/injection, schedule: Q01DX001 (ip), vehicle: Klucel (hydroxypropylcellulose) (HPC)
[10] = dose: 400.0 mg/kg/injection, schedule: Q01DX001 (ip), vehicle: Klucel (hydroxypropylcellulose) (HPC)

Measured: T/C

COc1ccccc1N1C(N)=NC(N)=NC1(C)C
inactive: dose: 11.0 mg/kg/injection, schedule: Q01DX001 (ip), vehicle: saline 109 % of control | dose: 11.0 mg/kg/injection, schedule: Q04DX003 (ip), vehicle: saline 91 % of control | dose: 16.0 mg/kg/injection, schedule: Q01DX001 (ip), vehicle: saline 88 % of control | [1] 113 % of control | [2] 102 % of control | dose: 37.5 mg/kg/injection, schedule: Q01DX001 (ip), vehicle: saline 102 % of control | dose: 37.5 mg/kg/injection, schedule: Q04DX003 (ip), vehicle: saline 88 % of control | [3] 90 % of control

COc1cc2c(cc1OC)C13CCN4CC5=CCOC6CC(=O)N2C1C6C5CC43 (stereo unspecified) (tested in a mixture with another compound)
inactive: dose: 45.0 mg/kg/injection, schedule: Q01DX001 (ip), vehicle: Klucel (hydroxypropylcellulose) (HPC) 100 % of control | dose: 65.0 mg/kg/injection, schedule: Q01DX001 (ip), vehicle: Klucel (hydroxypropylcellulose) (HPC) 100 % of control | [4] 106 % of control and 108 % of control | dose: 150.0 mg/kg/injection, schedule: Q01DX001 (ip), vehicle: Klucel (hydroxypropylcellulose) (HPC) 100 % of control

O=C(Nc1cccc(Cl)c1)Oc1ccc2ccccc2c1
inactive: dose: 100.0 mg/kg/injection, schedule: Q01DX001 (ip), vehicle: saline with Tween-80 100 % of control | dose: 100.0 mg/kg/injection, schedule: Q01DX009 (ip), vehicle: saline 92 % of control | dose: 200.0 mg/kg/injection, schedule: Q01DX001 (ip), vehicle: saline with Tween-80 100 % of control | dose: 200.0 mg/kg/injection, schedule: Q01DX009 (ip), vehicle: saline 112 % of control | dose: 400.0 mg/kg/injection, schedule: Q01DX001 (ip), vehicle: saline with Tween-80 105 % of control | dose: 400.0 mg/kg/injection, schedule: Q04DX003 (ip), vehicle: saline 93 % of control

C1CC2CCC[N+]3=C2C(C1)CCC3 (stereo unspecified)
inactive: dose: 12.5 mg/kg/injection, schedule: Q01DX001 (ip), vehicle: saline 100 % of control | [1] 100 % of control | [5] 108 % of control

COC(=O)C1CC2C(Cl)=C(Cl)C1(Cl)C2(Cl)Cl (stereo unspecified)
inactive: [2] 108 % of control | [6] 100 % of control | [3] 96 % of control | dose: 100.0 mg/kg/injection, schedule: Q04DX003 (ip), vehicle: saline 95 % of control | [7] 105 % of control | [8] 103 % of control

O=C1CSC(=S)N1c1ccco1
inactive: dose: 25.0 mg/kg/injection, schedule: Q04DX003 (ip), vehicle: Klucel (hydroxypropylcellulose) (HPC) 109 % of control | dose: 50.0 mg/kg/injection, schedule: Q01DX009 (ip), vehicle: Klucel (hydroxypropylcellulose) (HPC) 97 % of control | dose: 50.0 mg/kg/injection, schedule: Q04DX003 (ip), vehicle: Klucel (hydroxypropylcellulose) (HPC) 92 % of control | [4] 103 % of control | dose: 100.0 mg/kg/injection, schedule: Q01DX009 (ip), vehicle: Klucel (hydroxypropylcellulose) (HPC) 95 % of control | dose: 100.0 mg/kg/injection, schedule: Q04DX003 (ip), vehicle: Klucel (hydroxypropylcellulose) (HPC) 90 % of control | [9] 96 % of control | dose: 200.0 mg/kg/injection, schedule: Q01DX009 (ip), vehicle: Klucel (hydroxypropylcellulose) (HPC) 102 % of control | dose: 200.0 mg/kg/injection, schedule: Q04DX003 (ip), vehicle: Klucel (hydroxypropylcellulose) (HPC) 88 % of control

CCOC(=O)CCCl
inactive: [9] 111 % of control | [10] 97 % of control

C[C@@H]1C[C@H]2[C@@H]3CCC4=CC(=O)C=C[C@]4(C)[C@@]3(F)[C@@H](O)C[C@]2(C)[C@@]1(O)C(=O)CO
inactive: dose: 0.25 mg/kg/injection, schedule: Q01DX004 (sc), vehicle: saline 121 % of control | dose: 0.5 mg/kg/injection, schedule: Q01DX004 (sc), vehicle: saline 103 % of control and 110 % of control | dose: 1.0 mg/kg/injection, schedule: Q01DX004 (sc), vehicle: saline 103 % of control and 121 % of control | dose: 1.8 mg/kg/injection, schedule: Q01DX004 (sc), vehicle: saline 89 % of control | dose: 2.6 mg/kg/injection, schedule: Q01DX004 (sc), vehicle: saline 103 % of control | dose: 4.0 mg/kg/injection, schedule: Q01DX004 (sc), vehicle: saline 103 % of control | dose: 4.5 mg/kg/injection, schedule: Q01DX004 (sc), vehicle: saline 96 % of control

Cn1c(O)c(C=N)c(=O)n(C)c1=O
inactive: dose: 12.0 mg/kg/injection, schedule: Q01DX001 (ip), vehicle: saline 102 % of control | dose: 12.5 mg/kg/injection, schedule: Q04DX003 (ip), vehicle: saline 97 % of control | [1] 105 % of control | [2] 100 % of control | [5] 100 % of control | [6] 100 % of control

O=C1CC2CCCC(C1)S2=O (stereo unspecified)
inactive: [3] 113 % of control | [7] 89 % of control | [8] 97 % of control

COc1ccc(N2CSC(=S)N(c3ccc(OC)cc3)C2)cc1
inactive: [4] 88 % of control | [9] 88 % of control | [10] 92 % of control

COc1ccc(-n2c(=S)[nH]c3ccccc3c2=O)cc1
inactive: dose: 75.0 mg/kg/injection, schedule: Q04DX003 (ip), vehicle: Klucel (hydroxypropylcellulose) (HPC) 88 % of control | [4] 106 % of control | dose: 150.0 mg/kg/injection, schedule: Q04DX003 (ip), vehicle: Klucel (hydroxypropylcellulose) (HPC) 86 % of control | [9] 87 % of control | [10] 90 % of control

COc1cc2ccc(CCNCc3ccccc3)cc2cc1OC
inactive: dose: 25.0 mg/kg/injection, schedule: Q04DX003 (ip), vehicle: saline sonified 92 % of control | dose: 50.0 mg/kg/injection, schedule: Q04DX003 (ip), vehicle: saline sonified 95 % of control | [3] 116 % of control | dose: 100.0 mg/kg/injection, schedule: Q04DX003 (ip), vehicle: saline sonified 92 % of control
